According to PubChem BioAssay AID248 (DTP/NCI, 2004):
Values joined by “and” are separate entries in the source; they are usually repeats but may differ in a detail not shown here. Equal values may be shown once. Inconclusive results and toxic doses are left out.

System: L1210 leukemia ip in BDF1 mice, survival T/C
Test: NCI In Vivo Anticancer Drug Screen. Data for tumor model L1210 Leukemia (intraperitoneal) in B6D2F1 (BDF1) mice
Conditions: endpoint: mean survival time, higher = longer survival
Method in brief: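 Mice bearing the transplanted tumor received compound or vehicle. Survival of the treated group was divided by that of the vehicle-treated control group to give the ratio.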

[1] = dose: 100.0 mg/kg/injection, schedule: Q01DX001 (ip), vehicle: Klucel (hydroxypropylcellulose) (HPC)
[2] = dose: 200.0 mg/kg/injection, schedule: Q01DX001 (ip), vehicle: Klucel (hydroxypropylcellulose) (HPC)
[3] = dose: 50.0 mg/kg/injection, schedule: Q01DX001 (ip), vehicle: saline
[4] = dose: 100.0 mg/kg/injection, schedule: Q01DX001 (ip), vehicle: saline
[5] = dose: 50.0 mg/kg/injection, schedule: Q01DX009 (ip), vehicle: saline with Tween-80
[6] = dose: 100.0 mg/kg/injection, schedule: Q01DX009 (ip), vehicle: saline with Tween-80
[7] = dose: 100.0 mg/kg/injection, schedule: Q04DX003 (ip), vehicle: saline with Tween-80
[8] = dose: 200.0 mg/kg/injection, schedule: Q01DX009 (ip), vehicle: saline with Tween-80
[9] = dose: 200.0 mg/kg/injection, schedule: Q04DX003 (ip), vehicle: saline with Tween-80
[10] = dose: 100.0 mg/kg/injection, schedule: Q04DX003 (ip), vehicle: Klucel (hydroxypropylcellulose) (HPC)
[11] = dose: 200.0 mg/kg/injection, schedule: Q04DX003 (ip), vehicle: Klucel (hydroxypropylcellulose) (HPC)
[12] = dose: 400.0 mg/kg/injection, schedule: Q04DX003 (ip), vehicle: Klucel (hydroxypropylcellulose) (HPC)
[13] = dose: 100.0 mg/kg/injection, schedule: Q04DX002 (ip), vehicle: saline
[14] = dose: 100.0 mg/kg/injection, schedule: Q04DX002 (ip), vehicle: Klucel (hydroxypropylcellulose) (HPC)
[15] = dose: 200.0 mg/kg/injection, schedule: Q04DX002 (ip), vehicle: Klucel (hydroxypropylcellulose) (HPC)
[16] = dose: 400.0 mg/kg/injection, schedule: Q04DX002 (ip), vehicle: Klucel (hydroxypropylcellulose) (HPC)

SMILES: Nc1ccc2ncccc2c1 (tested in a mixture with another compound)
- T/C (dose: 100.0 mg/kg/injection, schedule: Q04DX003 (ip), vehicle: gum acacia): 100 % of control
- T/C (dose: 200.0 mg/kg/injection, schedule: Q04DX003 (ip), vehicle: gum acacia): 91 % of control
- T/C (dose: 400.0 mg/kg/injection, schedule: Q04DX003 (ip), vehicle: gum acacia): 100 % of control

SMILES: O=C(O)/C=C/c1ccc(O)cc1
- T/C (dose: 75.0 mg/kg/injection, schedule: Q04DX003 (ip), vehicle: Klucel (hydroxypropylcellulose) (HPC)): 97 % of control
- T/C (dose: 150.0 mg/kg/injection, schedule: Q04DX003 (ip), vehicle: Klucel (hydroxypropylcellulose) (HPC)): 101 % of control
- T/C (dose: 300.0 mg/kg/injection, schedule: Q04DX003 (ip), vehicle: Klucel (hydroxypropylcellulose) (HPC)): 109 % of control

SMILES: CCN(CC)C(=O)c1cncc(-c2ccccc2)c1
- T/C [1]: 97 % of control
- T/C [2]: 98 % of control

SMILES: CS(=O)(=O)NN
- T/C (dose: 25.0 mg/kg/injection, schedule: Q01DX009 (ip), vehicle: saline): 89 % of control
- T/C [3]: 100 % of control
- T/C (dose: 50.0 mg/kg/injection, schedule: Q01DX009 (ip), vehicle: saline): 94 % of control
- T/C [4]: 102 % of control and 103 % of control

SMILES: Nc1c(I)cc(C(=O)O)c(O)c1I
- T/C [5]: 97 % of control
- T/C [6]: 94 % of control
- T/C [7]: 94 % of control
- T/C [8]: 94 % of control
- T/C [9]: 98 % of control

SMILES: Nc1ccc2cc(O)ccc2c1
- T/C [5]: 94 % of control

SMILES: N#Cc1cn(-c2cccc(Cl)c2)c2ncccc12
- T/C (dose: 25.0 mg/kg/injection, schedule: Q01DX001 (ip), vehicle: saline): 103 % of control
- T/C [3]: 100 % of control
- T/C [4]: 103 % of control
- T/C (dose: 200.0 mg/kg/injection, schedule: Q01DX001 (ip), vehicle: saline): 87 % of control
- T/C (dose: 400.0 mg/kg/injection, schedule: Q01DX001 (ip), vehicle: saline): 91 % of control

SMILES: COC(=O)C1C2CCc3cc(OC)ccc3C2CCC1(C)C(=O)O (stereo unspecified)
- T/C [10]: 95 % of control
- T/C [11]: 95 % of control
- T/C [12]: 91 % of control

SMILES: O=CNc1ccc(Cl)cc1
- T/C (dose: 25.0 mg/kg/injection, schedule: Q04DX003 (ip), vehicle: Klucel (hydroxypropylcellulose) (HPC)): 92 % of control
- T/C (dose: 50.0 mg/kg/injection, schedule: Q04DX003 (ip), vehicle: Klucel (hydroxypropylcellulose) (HPC)): 92 % of control
- T/C [10]: 87 % of control
- T/C [11]: 97 % of control

SMILES: CNC(=O)Oc1ccc2c(C)cc(=O)oc2c1
- T/C [13]: 94 % of control
- T/C (dose: 200.0 mg/kg/injection, schedule: Q04DX002 (ip), vehicle: saline): 105 % of control

SMILES: NOC(=O)C(O)(c1ccccc1)C1CCCCC1 (stereo unspecified)
- T/C (dose: 75.0 mg/kg/injection, schedule: Q01DX001 (ip), vehicle: other): 104 % of control
- T/C (dose: 150.0 mg/kg/injection, schedule: Q01DX001 (ip), vehicle: other): 98 % of control
- T/C (dose: 300.0 mg/kg/injection, schedule: Q01DX001 (ip), vehicle: other): 98 % of control

SMILES: c1cc2c(c(OCC3=NCCN3)c1)CCCC2
- T/C [13]: 94 % of control

SMILES: Cn1c(=O)c2c(nc(N/N=C/c3ccc(O)cc3)n2C)n(C)c1=O
- T/C (dose: 44.0 mg/kg/injection, schedule: Q01DX Z (ip), vehicle: methylcellulose (MC)): 94 % of control
- T/C (dose: 66.0 mg/kg/injection, schedule: Q01DX Z (ip), vehicle: methylcellulose (MC)): 97 % of control
- T/C (dose: 100.0 mg/kg/injection, schedule: Q01DX Z (ip), vehicle: methylcellulose (MC)): 96 % of control

SMILES: COC(=O)C#CBr
- T/C (dose: 3.13 mg/kg/injection, schedule: Q01DX009 (ip), vehicle: other): 108 % of control
- T/C (dose: 6.25 mg/kg/injection, schedule: Q01DX009 (ip), vehicle: other): 97 % of control

SMILES: COc1c(C)c(Br)c(OC)c2ccccc12
- T/C [6]: 89 % of control
- T/C [8]: 94 % of control
- T/C (dose: 400.0 mg/kg/injection, schedule: Q01DX009 (ip), vehicle: saline with Tween-80): 94 % of control

SMILES: c1ccc(C2=NC(c3ccccc3)C(c3ccccc3)N2)cc1 (stereo unspecified)
- T/C [1]: 97 % of control
- T/C [2]: 94 % of control
- T/C (dose: 400.0 mg/kg/injection, schedule: Q01DX001 (ip), vehicle: Klucel (hydroxypropylcellulose) (HPC)): 89 % of control

SMILES: C/C(=N\N=C(N)N)c1ccc(NC(N)=S)cc1
- T/C (dose: 20.0 mg/kg/injection, schedule: Q01DX005 (ip), vehicle: saline): 106 % of control
- T/C (dose: 40.0 mg/kg/injection, schedule: Q01DX005 (ip), vehicle: saline): 97 % of control

SMILES: COC(=O)C(CCCCN=Cc1ccccc1O)N=Cc1ccccc1O.[Cu] (stereo unspecified)
- T/C (dose: 6.25 mg/kg/injection, schedule: Q01DX009 (ip), vehicle: saline with Tween-80): 96 % of control
- T/C (dose: 12.5 mg/kg/injection, schedule: Q01DX009 (ip), vehicle: saline with Tween-80): 93 % of control
- T/C (dose: 25.0 mg/kg/injection, schedule: Q01DX009 (ip), vehicle: saline with Tween-80): 96 % of control and 98 % of control
- T/C [5]: 103 % of control
- T/C [7]: 96 % of control

SMILES: O=C(NC(=S)Nc1ccc([N+](=O)[O-])cc1Cl)c1ccccc1F
- T/C [14]: 91 % of control
- T/C [15]: 105 % of control
- T/C [16]: 105 % of control

SMILES: CCO/C=N\c1c(C#N)c(CC#N)nn1C
- T/C [14]: 102 % of control
- T/C [15]: 98 % of control
- T/C [16]: 102 % of control

SMILES: N#Cc1ccc(-n2cccc2)cc1
- T/C (dose: 100.0 mg/kg/injection, schedule: Q01DX001 (ip), vehicle: steriod suspending solution): 100 % of control
- T/C (dose: 200.0 mg/kg/injection, schedule: Q01DX001 (ip), vehicle: steriod suspending solution): 100 % of control
- T/C (dose: 400.0 mg/kg/injection, schedule: Q01DX001 (ip), vehicle: steriod suspending solution): 101 % of control

SMILES: CCOC(=O)Cc1cc(=O)[nH]n(-c2ccccc2)c1=O
- T/C (dose: 100.0 mg/kg/injection, schedule: Q04DX002 (ip), vehicle: gum acacia): 100 % of control
- T/C (dose: 200.0 mg/kg/injection, schedule: Q04DX002 (ip), vehicle: gum acacia): 89 % of control
- T/C (dose: 400.0 mg/kg/injection, schedule: Q04DX002 (ip), vehicle: gum acacia): 96 % of control

SMILES: O=[N+]([O-])c1ccc(Cl)c(OCCOc2ccc(S(=O)(=O)F)cc2)c1
- T/C (dose: 100.0 mg/kg/injection, schedule: Q01DX001 (ip), vehicle: saline with Tween-80): 96 % of control
- T/C (dose: 200.0 mg/kg/injection, schedule: Q01DX001 (ip), vehicle: saline with Tween-80): 87 % of control
- T/C (dose: 400.0 mg/kg/injection, schedule: Q01DX001 (ip), vehicle: saline with Tween-80): 90 % of control

SMILES: O=C(N/N=C\c1ccc2c(c1)OCO2)N/N=C/c1ccc2c(c1)OCO2
- T/C [10]: 97 % of control
- T/C [11]: 100 % of control
- T/C [12]: 97 % of control

SMILES: C[CH2][Ge]([CH2]C)([CH2]C)[CH2]CO
- T/C (dose: 5.0 mg/kg/injection, schedule: Q04DX002 (ip), vehicle: saline with Tween-80): 103 % of control
- T/C (dose: 10.0 mg/kg/injection, schedule: Q04DX002 (ip), vehicle: saline with Tween-80): 106 % of control
- T/C (dose: 20.0 mg/kg/injection, schedule: Q04DX002 (ip), vehicle: saline with Tween-80): 103 % of control

SMILES: O=[N+]([O-])c1ccc(/C=N/N(Cc2ccccc2)c2ccccc2)s1
- T/C [7]: 87 % of control
- T/C (dose: 400.0 mg/kg/injection, schedule: Q04DX003 (ip), vehicle: saline with Tween-80): 89 % of control

SMILES: O=c1[nH]c(=O)c(C2OC(CO)C(O)C2O)co1 (stereo unspecified)
- T/C (dose: 6.25 mg/kg/injection, schedule: Q04DX003 (ip), vehicle: saline with Tween-80): 123 % of control
- T/C (dose: 12.5 mg/kg/injection, schedule: Q04DX003 (ip), vehicle: saline with Tween-80): 106 % of control

SMILES: CCN(CC)CCC(C#N)(CC=C(C)C)c1cccc2ccccc12 (stereo unspecified)
- T/C (dose: 12.5 mg/kg/injection, schedule: Q01DX009 (ip), vehicle: Klucel (hydroxypropylcellulose) (HPC)): 100 % of control
- T/C (dose: 25.0 mg/kg/injection, schedule: Q01DX009 (ip), vehicle: Klucel (hydroxypropylcellulose) (HPC)): 110 % of control
- T/C (dose: 50.0 mg/kg/injection, schedule: Q01DX009 (ip), vehicle: Klucel (hydroxypropylcellulose) (HPC)): 97 % of control

SMILES: CC#CC(O)(C(=O)OC1CCN(C)CC1)C(C)CC (stereo unspecified)
- T/C [5]: 92 % of control
- T/C [6]: 96 % of control
- T/C [7]: 120 % of control
- T/C [9]: 102 % of control
